{"source": "ChEMBL document CHEMBL5661982", "about": "(Mol Cancer Ther, 2012)", "key": {"[1]": {"system": "HT-29", "assay": "Inhibition of cell invasion in HGF-stimulated human HT-29 cells over expressing c-Met incubated for 48 hrs by Matrigel based analysis", "conditions": "HT-29, 48 h"}, "[2]": {"system": "U-87MG ATCC", "conditions": "Homo sapiens, dose 5-50 mg/kg, route po, time 3.0 day"}, "[3]": {"system": "HT-29", "conditions": "Homo sapiens, dose 50.0 mg/kg/day, route po, time 21.0 day"}, "[4]": {"system": "GTL 16 cell line", "assay": "Antiproliferative activity against human GTL 16 cells over expressing c-Met assessed as reduction in cell viability after 48 to 72 hrs by MTT assay"}, "[5]": {"system": "GTL 16 cell line", "assay": "Antitumor activity against human GTL 16 cells xenografted in athymic nu/nu mouse assessed as tumor growth inhibition at 5 mg/kg, sc minipump administered for 14 days relative to control", "conditions": "GTL 16, 336 h, read-out: TGI"}, "[6]": {"system": "U-87 MG", "assay": "Antitumor activity against human U-87 MG cells xenografted in athymic nu/nu mouse assessed as tumor growth inhibition at 1 mg/kg, po for 9 days relative to control", "conditions": "216 h, read-out: TGI"}, "[7]": {"system": "MDA-MB-231", "assay": "Antitumor activity against human MDA-MB-231 cells xenografted in athymic nu/nu mouse assessed as tumor growth inhibition at 40 mg/kg/day, po for 14 days relative to control", "conditions": "MDA-MB-231, po, 336 h, read-out: TGI"}, "[8]": {"system": "NCI-H441", "assay": "Inhibition of cell invasion in HGF-stimulated human NCI-H441 cells over expressing c-Met incubated for 48 hrs by Matrigel based analysis", "conditions": "NCI-H441, 48 h"}, "[9]": {"system": "GTL 16 cell line", "assay": "Antitumor activity against human GTL 16 cells xenografted in athymic nu/nu mouse assessed as tumor growth inhibition at 1.5 mg/kg, sc minipump administered for 14 days relative to control", "conditions": "GTL 16, 336 h, read-out: TGI"}, "[10]": {"system": "HT-29", "assay": "Antiproliferative activity against human HT-29 cells over expressing c-Met assessed as reduction in cell viability after 48 to 72 hrs by MTT assay"}, "[11]": {"system": "U-87MG ATCC", "conditions": "Homo sapiens, dose 5-50 mg/kg, route po, time 3.0 day", "remark": "listed apart in the source"}, "[12]": {"assay": "Inhibition of human c-Met V1092I mutant expressed in mouse NIH3T3 cells assessed as reduction in HGF-stimulated c-Met phosphorylation incubated for 1 hr by ELISA analysis", "conditions": "NIH3T3, 1 h"}, "[13]": {"system": "U-87MG ATCC", "conditions": "Homo sapiens, dose 5-50 mg/kg, route po, time 3.0 day", "remark": "listed apart in the source"}, "[14]": {"system": "MDA-MB-231", "assay": "Antiproliferative activity against human MDA-MB-231 cells over expressing c-Met assessed as reduction in cell viability after 48 to 72 hrs by MTT assay"}, "[15]": {"molecular_target": "Insulin-like growth factor 1 receptor (Mus musculus, UniProt Q60751)", "sequence (Q60751 31-737 limits assumed)": "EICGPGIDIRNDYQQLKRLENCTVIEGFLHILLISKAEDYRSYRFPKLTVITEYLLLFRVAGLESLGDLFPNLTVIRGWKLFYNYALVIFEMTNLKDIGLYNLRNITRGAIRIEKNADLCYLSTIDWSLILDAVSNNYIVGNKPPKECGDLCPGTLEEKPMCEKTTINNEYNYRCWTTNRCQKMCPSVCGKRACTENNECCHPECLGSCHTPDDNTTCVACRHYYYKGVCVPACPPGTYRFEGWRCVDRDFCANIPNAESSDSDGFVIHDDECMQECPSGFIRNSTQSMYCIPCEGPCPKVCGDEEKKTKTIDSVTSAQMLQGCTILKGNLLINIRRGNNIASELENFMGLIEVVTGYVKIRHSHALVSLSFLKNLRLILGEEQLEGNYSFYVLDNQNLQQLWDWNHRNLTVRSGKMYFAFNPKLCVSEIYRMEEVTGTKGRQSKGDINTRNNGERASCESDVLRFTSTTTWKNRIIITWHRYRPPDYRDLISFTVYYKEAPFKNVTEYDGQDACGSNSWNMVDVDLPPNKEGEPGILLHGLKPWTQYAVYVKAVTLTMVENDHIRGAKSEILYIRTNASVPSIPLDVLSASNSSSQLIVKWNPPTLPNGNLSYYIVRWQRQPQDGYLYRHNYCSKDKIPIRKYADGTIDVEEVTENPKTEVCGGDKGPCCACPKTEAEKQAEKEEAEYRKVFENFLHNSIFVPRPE", "sequence (Q60751 742-1373 limits assumed)": "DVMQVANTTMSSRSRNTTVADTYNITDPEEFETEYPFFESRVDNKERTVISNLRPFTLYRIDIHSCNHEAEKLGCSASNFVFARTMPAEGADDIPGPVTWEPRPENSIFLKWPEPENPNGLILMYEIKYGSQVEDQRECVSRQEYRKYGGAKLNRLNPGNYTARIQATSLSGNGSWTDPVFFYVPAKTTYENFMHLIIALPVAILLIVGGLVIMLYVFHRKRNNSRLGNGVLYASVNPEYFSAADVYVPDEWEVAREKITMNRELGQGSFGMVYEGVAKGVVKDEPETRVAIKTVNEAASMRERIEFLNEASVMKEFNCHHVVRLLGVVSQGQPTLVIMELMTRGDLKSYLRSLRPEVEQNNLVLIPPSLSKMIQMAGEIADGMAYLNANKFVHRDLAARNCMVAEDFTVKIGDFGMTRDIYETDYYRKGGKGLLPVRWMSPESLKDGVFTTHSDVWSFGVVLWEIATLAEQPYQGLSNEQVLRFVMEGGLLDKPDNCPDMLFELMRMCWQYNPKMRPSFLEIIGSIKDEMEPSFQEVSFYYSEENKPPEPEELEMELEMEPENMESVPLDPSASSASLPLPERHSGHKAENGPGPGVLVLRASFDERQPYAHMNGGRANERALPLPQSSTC", "assay": "Inhibition of IGF1R expressed in mouse NIH3T3 cells assessed as reduction in IGF-stimulated IGF1R phosphorylation incubated for 1 hr by sandwich ELISA analysis"}, "[16]": {"system": "SW-620", "conditions": "Homo sapiens, dose 40.0 mg/kg/day, route po, time 25.0 day"}, "[17]": {"system": "GTL 16", "conditions": "Homo sapiens, dose 0.3-10 mg/kg, route po, time 4.0 day"}, "[18]": {"system": "U-87MG ATCC", "conditions": "Homo sapiens, dose 5-50 mg/kg, route po, time 3.0 day", "remark": "listed apart in the source"}, "[19]": {"system": "U-87 MG", "assay": "Antitumor activity against human U-87 MG cells xenografted in athymic nu/nu mouse assessed as tumor growth inhibition at 10 mg/kg, po for 9 days relative to control", "conditions": "216 h, read-out: TGI"}, "[20]": {"system": "GTL 16", "conditions": "Homo sapiens, dose 1-30 mg/kg, route po"}, "[21]": {"system": "GTL 16 cell line", "assay": "animal or person", "conditions": "Mus musculus, GTL 16, po, 384 h, read-out: TGI", "description": "Antitumor activity against human GTL 16 cells xenografted in athymic nu/nu mouse assessed as tumor growth inhibition at 30 mg/kg, po administered for 16 days relative to control"}, "[22]": {"system": "NCI-H292", "assay": "Antitumor activity against human NCI-H292 cells xenografted in athymic nu/nu mouse assessed as tumor growth inhibition at 50 mg/kg/day, po for 31 days relative to control", "conditions": "744 h, read-out: TGI"}, "[23]": {"molecular_target": "Tyrosine-protein kinase Mer (Homo sapiens, UniProt Q12866)", "sequence (Q12866 whole entry)": "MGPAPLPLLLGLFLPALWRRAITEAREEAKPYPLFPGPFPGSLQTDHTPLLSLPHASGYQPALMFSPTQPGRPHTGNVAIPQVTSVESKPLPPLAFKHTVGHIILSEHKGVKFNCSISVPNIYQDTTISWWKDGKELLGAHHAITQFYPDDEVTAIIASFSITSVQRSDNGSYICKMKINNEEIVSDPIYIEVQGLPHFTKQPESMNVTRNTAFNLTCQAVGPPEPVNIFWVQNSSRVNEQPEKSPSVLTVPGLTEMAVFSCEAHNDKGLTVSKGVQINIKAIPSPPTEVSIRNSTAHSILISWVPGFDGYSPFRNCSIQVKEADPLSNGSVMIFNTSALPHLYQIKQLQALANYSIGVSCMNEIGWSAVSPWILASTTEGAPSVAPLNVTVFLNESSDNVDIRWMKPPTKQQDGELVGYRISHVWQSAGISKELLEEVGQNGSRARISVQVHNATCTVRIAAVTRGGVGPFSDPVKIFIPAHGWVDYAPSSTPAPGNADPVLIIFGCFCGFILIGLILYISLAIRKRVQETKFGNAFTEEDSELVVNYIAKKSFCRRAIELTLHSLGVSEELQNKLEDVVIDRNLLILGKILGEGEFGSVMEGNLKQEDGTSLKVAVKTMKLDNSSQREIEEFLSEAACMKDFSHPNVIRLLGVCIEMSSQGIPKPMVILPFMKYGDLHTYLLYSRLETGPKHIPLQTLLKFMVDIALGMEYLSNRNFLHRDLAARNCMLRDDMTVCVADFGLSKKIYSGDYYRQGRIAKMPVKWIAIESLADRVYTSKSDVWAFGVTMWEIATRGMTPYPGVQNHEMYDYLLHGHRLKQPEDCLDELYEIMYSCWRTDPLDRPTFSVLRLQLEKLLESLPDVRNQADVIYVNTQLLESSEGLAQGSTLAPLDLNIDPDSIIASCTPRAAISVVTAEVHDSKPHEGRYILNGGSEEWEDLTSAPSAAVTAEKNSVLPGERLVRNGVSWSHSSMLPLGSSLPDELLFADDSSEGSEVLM", "assay": "Inhibition of MER expressed in HEK293 cells assessed as reduction in Gas6-stimulated MER phosphorylation incubated for 1 hr by sandwich ELISA analysis"}, "[24]": {"molecular_target": "Macrophage-stimulating protein receptor (Mus musculus, UniProt Q62190)", "sequence (Q62190 25-305 limits assumed)": "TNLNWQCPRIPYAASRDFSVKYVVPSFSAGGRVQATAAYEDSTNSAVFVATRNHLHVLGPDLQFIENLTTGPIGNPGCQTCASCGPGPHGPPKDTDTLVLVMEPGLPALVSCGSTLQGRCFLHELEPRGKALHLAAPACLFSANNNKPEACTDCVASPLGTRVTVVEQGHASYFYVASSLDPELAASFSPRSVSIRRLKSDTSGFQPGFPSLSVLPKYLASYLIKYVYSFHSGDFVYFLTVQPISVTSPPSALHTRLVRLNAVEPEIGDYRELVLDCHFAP", "sequence (Q62190 311-1378 limits assumed)": "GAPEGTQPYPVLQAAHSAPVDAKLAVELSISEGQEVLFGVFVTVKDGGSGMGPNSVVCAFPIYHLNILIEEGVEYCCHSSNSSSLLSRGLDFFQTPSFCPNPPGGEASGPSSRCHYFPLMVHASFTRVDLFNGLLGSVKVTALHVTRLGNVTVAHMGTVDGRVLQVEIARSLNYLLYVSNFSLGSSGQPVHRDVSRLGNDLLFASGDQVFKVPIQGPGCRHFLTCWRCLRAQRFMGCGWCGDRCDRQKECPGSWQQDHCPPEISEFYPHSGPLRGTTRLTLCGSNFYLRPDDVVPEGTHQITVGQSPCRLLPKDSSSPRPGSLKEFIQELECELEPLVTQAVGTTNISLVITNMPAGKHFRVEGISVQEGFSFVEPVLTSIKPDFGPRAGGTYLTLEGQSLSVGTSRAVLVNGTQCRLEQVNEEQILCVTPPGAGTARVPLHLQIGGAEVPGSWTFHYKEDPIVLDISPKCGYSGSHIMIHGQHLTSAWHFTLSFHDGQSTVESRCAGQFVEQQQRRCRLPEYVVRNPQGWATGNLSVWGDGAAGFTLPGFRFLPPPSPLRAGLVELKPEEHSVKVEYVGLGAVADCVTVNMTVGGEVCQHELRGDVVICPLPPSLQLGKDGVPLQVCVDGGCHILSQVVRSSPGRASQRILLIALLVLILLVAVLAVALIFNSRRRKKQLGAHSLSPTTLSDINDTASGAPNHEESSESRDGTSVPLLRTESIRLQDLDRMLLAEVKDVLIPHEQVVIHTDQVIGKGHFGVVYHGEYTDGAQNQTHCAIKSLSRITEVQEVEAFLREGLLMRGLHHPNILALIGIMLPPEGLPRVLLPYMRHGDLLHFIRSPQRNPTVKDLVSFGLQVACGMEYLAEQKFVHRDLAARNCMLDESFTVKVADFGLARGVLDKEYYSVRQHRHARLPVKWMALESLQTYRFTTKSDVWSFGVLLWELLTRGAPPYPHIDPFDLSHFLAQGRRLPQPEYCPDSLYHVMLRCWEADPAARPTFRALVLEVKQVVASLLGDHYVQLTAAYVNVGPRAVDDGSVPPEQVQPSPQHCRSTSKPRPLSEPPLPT", "assay": "Inhibition of Ron expressed in mouse NIH3T3 cells assessed as reduction in MSP-stimulated RON phosphorylation incubated for 1 hr by sandwich ELISA analysis"}, "[25]": {"system": "GTL 16 cell line", "assay": "Antitumor activity against human GTL 16 cells xenografted in athymic nu/nu mouse assessed as tumor growth inhibition at 3 mg/kg, po administered for 16 days relative to control", "conditions": "GTL 16, po, 384 h, read-out: TGI"}, "[26]": {"molecular_target": "Insulin receptor (Homo sapiens, UniProt P06213)", "sequence (P06213 28-758 limits assumed)": "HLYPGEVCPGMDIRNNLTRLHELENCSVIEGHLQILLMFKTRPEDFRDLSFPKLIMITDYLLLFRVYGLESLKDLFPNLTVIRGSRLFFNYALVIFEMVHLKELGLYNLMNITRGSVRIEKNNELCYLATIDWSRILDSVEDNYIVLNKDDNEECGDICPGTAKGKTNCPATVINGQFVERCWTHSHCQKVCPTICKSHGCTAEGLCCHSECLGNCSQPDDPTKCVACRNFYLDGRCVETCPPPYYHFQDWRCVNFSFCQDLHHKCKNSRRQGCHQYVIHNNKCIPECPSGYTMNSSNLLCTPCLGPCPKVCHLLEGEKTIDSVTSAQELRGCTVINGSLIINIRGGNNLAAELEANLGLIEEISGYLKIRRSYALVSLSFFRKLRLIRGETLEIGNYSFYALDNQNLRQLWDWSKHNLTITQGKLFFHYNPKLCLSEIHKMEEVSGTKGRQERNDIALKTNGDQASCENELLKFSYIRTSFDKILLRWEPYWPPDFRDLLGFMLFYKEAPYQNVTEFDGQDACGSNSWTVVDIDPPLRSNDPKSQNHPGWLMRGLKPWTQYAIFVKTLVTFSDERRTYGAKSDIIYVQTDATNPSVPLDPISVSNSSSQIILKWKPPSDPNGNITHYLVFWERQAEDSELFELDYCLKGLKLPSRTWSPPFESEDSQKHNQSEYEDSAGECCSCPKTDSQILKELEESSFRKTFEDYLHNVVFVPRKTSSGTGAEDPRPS", "sequence (P06213 763-1382 limits assumed)": "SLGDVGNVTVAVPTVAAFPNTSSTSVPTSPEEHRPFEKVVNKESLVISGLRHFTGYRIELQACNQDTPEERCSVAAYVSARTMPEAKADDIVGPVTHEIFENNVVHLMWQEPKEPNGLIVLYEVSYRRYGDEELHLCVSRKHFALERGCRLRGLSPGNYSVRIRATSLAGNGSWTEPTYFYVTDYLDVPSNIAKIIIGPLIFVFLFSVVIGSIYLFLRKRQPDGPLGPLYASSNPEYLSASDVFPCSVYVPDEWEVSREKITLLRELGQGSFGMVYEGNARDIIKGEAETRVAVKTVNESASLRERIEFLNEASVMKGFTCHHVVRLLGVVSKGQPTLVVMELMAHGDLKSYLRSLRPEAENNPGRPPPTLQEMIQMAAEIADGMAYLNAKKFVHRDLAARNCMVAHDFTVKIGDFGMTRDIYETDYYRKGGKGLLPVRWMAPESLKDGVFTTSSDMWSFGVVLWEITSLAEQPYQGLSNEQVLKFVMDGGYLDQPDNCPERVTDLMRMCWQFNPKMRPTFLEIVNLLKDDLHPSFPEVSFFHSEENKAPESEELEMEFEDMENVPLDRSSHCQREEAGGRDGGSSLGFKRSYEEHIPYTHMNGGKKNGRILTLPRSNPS", "assay": "Inhibition of Insulin receptor expressed in HEK293 cells assessed as reduction insulin-stimulated INSR phosphorylation incubated for 1 hr by sandwich ELISA analysis"}, "[27]": {"system": "U-87 MG", "assay": "Antitumor activity against human U-87 MG cells xenografted in athymic nu/nu mouse assessed as tumor growth inhibition at 0.3 mg/kg, po for 9 days relative to control", "conditions": "216 h, read-out: TGI"}, "[28]": {"system": "A549", "assay": "Antiproliferative activity against human A549 cells over expressing c-Met assessed as reduction in cell viability after 48 to 72 hrs by MTT assay"}, "[29]": {"system": "HUVEC", "assay": "Inhibition of cell invasion in HGF-stimulated HUVEC cells incubated for 48 hrs by Matrigel based analysis", "conditions": "Homo sapiens"}, "[30]": {"molecular_target": "Hepatocyte growth factor receptor (Mus musculus, UniProt P16056)", "assay": "Inhibition of c-Met phosphorylation in HGF-stimulated mIMCD3 cells incubated for 1 hr by sandwich ELISA analysis"}, "[31]": {"system": "SW-620", "assay": "Antiproliferative activity against human SW620 cells over expressing c-Met assessed as reduction in cell viability after 48 to 72 hrs by MTT assay"}, "[32]": {"molecular_target": "Hepatocyte growth factor receptor (Canis lupus familiaris, UniProt Q75ZY9)", "assay": "Inhibition of c-Met phosphorylation in HGF-stimulated dog MDCK cells incubated for 1 hr by sandwich ELISA analysis"}, "[33]": {"system": "DLD-1", "assay": "Antiproliferative activity against human DLD-1 cells over expressing c-Met assessed as reduction in cell viability after 48 to 72 hrs by MTT assay"}}, "note": "Active and inactive are the calls of the source. No cut-off for these calls is given here."}
{"smiles": "OCCn1cc(-c2cnc3nnn(Cc4ccc5ncccc5c4)c3n2)cn1", "note": "[PF-04217903]", "values": [{"measurement": "IC50", "setting": "[1]", "value": 7, "unit": "nM"}, {"measurement": "inhibition", "setting": "[2]", "value": "inactive"}, {"measurement": "inhibition", "setting": "[3]", "value": "Active"}, {"measurement": "IC50", "setting": "[4]", "value": 12, "unit": "nM"}, {"measurement": "inhibition in vivo at 5 mg/kg", "setting": "[5]", "value": 75, "unit": "%"}, {"measurement": "inhibition in vivo at 1 mg/kg", "setting": "[6]", "value": 30, "unit": "%"}, {"measurement": "inhibition in vivo at 40 mg/kg/day", "setting": "[7]", "value": 43, "unit": "%"}, {"measurement": "IC50", "setting": "[8]", "value": 12.5, "unit": "nM"}, {"measurement": "inhibition in vivo at 1.5 mg/kg", "setting": "[9]", "value": 63, "unit": "%"}, {"measurement": "IC50", "setting": "[10]", "value": "> 10000", "unit": "nM"}, {"measurement": "inhibition", "setting": "[11]", "value": "Active"}, {"measurement": "IC50", "setting": "[12]", "value": 16, "unit": "nM"}, {"measurement": "inhibition", "setting": "[13]", "value": "inactive"}, {"measurement": "IC50", "setting": "[14]", "value": "> 10000", "unit": "nM"}, {"measurement": "IC50", "setting": "[15]", "value": "> 10000", "unit": "nM"}, {"measurement": "inhibition", "setting": "[16]", "value": "Active"}, {"measurement": "inhibition", "setting": "[17]", "value": "Dose-Dependent Effect"}, {"measurement": "inhibition", "setting": "[18]", "value": "Active"}, {"measurement": "inhibition in vivo at 10 mg/kg", "setting": "[19]", "value": 68, "unit": "%"}, {"measurement": "inhibition", "setting": "[20]", "value": "Active"}, {"measurement": "inhibition in vivo at 30 mg/kg", "setting": "[21]", "value": 100, "unit": "%"}, {"measurement": "inhibition in vivo at 50 mg/kg/day", "setting": "[22]", "value": 39, "unit": "%"}, {"measurement": "IC50", "setting": "[23]", "value": "> 10000", "unit": "nM"}, {"measurement": "IC50", "setting": "[24]", "value": "> 10000", "unit": "nM"}, {"measurement": "inhibition in vivo at 3 mg/kg", "setting": "[25]", "value": 74, "unit": "%"}, {"measurement": "IC50", "setting": "[26]", "value": "> 10000", "unit": "nM"}, {"measurement": "inhibition in vivo at 0.3 mg/kg", "setting": "[27]", "value": 20, "unit": "%"}, {"measurement": "IC50", "setting": "[28]", "value": "> 10000", "unit": "nM"}, {"measurement": "IC50", "setting": "[29]", "value": 27, "unit": "nM"}, {"measurement": "IC50", "setting": "[30]", "value": 6.9, "unit": "nM"}, {"measurement": "IC50", "setting": "[31]", "value": "> 10000", "unit": "nM"}, {"measurement": "IC50", "setting": "[32]", "value": 9.5, "unit": "nM"}, {"measurement": "IC50", "setting": "[33]", "value": "> 10000", "unit": "nM"}]}
